# ChEMBL document CHEMBL1201862, “PubChem BioAssay data set” (2004)
# Active and inactive are the calls of the source.
# Experiments:
# [1] = biological target: T1, Replicative DNA helicase DnaB (Mycobacterium tuberculosis, UniProt P9WMR3); assay: DnaB intein splicing inhibitors, dose response, biochemical, cell-free fluorescence (AID 449749); type: functional
# T1 sequence (P9WMR3 whole entry): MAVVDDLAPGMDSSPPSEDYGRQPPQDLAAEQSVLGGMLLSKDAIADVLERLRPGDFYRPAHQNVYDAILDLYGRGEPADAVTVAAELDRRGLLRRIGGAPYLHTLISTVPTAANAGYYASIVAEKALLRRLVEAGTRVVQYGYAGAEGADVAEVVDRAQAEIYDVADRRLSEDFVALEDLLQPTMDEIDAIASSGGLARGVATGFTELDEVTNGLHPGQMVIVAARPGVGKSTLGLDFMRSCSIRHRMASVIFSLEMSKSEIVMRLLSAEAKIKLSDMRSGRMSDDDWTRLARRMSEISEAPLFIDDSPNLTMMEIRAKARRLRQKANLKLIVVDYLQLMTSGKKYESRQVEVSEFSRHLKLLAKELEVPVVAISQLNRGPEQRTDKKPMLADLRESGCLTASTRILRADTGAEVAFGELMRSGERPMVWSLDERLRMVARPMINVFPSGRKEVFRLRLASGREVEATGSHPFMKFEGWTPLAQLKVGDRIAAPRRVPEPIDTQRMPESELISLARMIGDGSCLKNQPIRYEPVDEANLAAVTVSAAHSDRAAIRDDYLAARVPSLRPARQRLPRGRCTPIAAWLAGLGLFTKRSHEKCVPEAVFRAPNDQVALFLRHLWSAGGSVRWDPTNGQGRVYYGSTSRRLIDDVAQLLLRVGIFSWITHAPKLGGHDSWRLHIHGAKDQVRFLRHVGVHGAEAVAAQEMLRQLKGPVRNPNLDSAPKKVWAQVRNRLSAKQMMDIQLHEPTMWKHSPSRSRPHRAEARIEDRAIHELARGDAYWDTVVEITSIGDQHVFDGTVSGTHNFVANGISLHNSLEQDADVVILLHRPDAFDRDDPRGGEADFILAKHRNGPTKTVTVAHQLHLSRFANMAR
# H4 = assay: Luminescence Cell-Based Dose Response HTS to Identify Activators of 5'UTR Stem-Loop Driven Prion Protein mRNA Translation in H4 Neuroglioblastoma Cells. [Related pubchem assays: 1829 (Project Summary), 1814 (Primary HTS)]; type: functional; settings: Homo sapiens
# [2] = Luminescence Cell-Based Dose Response HTS to Identify Activators of Luciferase Translation or Activity in H4 […] Cells. [Related pubchem assays: 1829 (Project Summary), 1814 (Primary HTS)]; type: functional
# [3] = Luminescence Cell-Based Dose Confirmation HTS to Identify Activators of 5'UTR Stem-Loop Driven Alpha-Synuclein mRNA Translation in H4 Neuroglioblastoma Cells. [Related pubchem assays: 1829 (Project Summary), 1814 (Primary HTS)]; type: functional
# Protein RecA = biological target: T2, Protein RecA (Mycobacterium tuberculosis, UniProt P9WHJ3); assay: Fluorescence Cell-Free Homogeneous Dose Retest to Identify Inhibitors of RecA-Intein Splicing Activity. [Related pubchem assays (depositor defined):AID2097, AID2223, AID489010, AID492950]; type: functional
# T2 sequence (P9WHJ3 whole entry): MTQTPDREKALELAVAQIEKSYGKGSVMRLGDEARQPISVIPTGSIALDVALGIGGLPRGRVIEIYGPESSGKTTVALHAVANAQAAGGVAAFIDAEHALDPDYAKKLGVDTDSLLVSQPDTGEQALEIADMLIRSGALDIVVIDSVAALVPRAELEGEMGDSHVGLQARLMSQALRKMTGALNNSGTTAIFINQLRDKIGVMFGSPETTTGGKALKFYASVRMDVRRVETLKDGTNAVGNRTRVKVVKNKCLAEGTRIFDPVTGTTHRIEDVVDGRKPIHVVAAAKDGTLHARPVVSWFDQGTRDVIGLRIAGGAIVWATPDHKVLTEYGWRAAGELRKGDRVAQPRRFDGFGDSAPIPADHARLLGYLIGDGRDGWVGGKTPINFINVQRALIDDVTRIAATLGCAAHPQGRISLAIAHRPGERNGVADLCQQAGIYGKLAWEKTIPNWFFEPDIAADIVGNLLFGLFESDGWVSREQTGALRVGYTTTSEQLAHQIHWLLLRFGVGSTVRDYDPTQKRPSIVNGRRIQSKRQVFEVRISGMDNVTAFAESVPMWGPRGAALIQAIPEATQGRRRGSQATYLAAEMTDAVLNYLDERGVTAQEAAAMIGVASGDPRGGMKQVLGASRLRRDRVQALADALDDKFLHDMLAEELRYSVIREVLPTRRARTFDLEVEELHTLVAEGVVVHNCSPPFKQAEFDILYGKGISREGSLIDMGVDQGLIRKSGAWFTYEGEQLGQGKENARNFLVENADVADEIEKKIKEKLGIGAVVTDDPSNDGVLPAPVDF
# cells = type: functional
# [4] = HEK-293T viability loss after treatment – luminescence, T-cell screen hits, cytotoxicity control for TCR NF-kB inhibitor project, dose response (AID 489026); type: functional, cell-based;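 note: cells exposed to compound about 14 hours before the viability readout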
# Leucine aminopeptidase = biological target: T3, Leucine aminopeptidase (Plasmodium falciparum 3D7, UniProt Q8IL11); assay: P. falciparum M17LAP inhibitors, primary screen, biochemical, fluorogenic H-Leu-NHMec substrate, 1536-well (AID 1619); type: functional
# T3 sequence (Q8IL11 whole entry): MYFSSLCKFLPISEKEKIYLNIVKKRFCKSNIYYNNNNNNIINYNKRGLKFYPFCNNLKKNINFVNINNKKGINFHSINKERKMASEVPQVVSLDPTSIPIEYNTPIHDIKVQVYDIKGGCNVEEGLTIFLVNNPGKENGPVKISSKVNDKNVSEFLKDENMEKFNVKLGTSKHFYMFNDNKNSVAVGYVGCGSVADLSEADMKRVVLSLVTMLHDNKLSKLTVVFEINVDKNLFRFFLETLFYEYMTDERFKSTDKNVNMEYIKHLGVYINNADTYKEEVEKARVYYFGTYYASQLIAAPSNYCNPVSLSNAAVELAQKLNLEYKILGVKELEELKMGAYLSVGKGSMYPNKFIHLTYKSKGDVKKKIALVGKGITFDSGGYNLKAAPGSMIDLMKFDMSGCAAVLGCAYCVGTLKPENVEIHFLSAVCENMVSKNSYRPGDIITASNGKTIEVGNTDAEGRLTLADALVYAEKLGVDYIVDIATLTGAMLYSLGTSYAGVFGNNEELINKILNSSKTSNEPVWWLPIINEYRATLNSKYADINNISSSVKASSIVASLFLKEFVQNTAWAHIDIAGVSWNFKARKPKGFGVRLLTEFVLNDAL
# Cytochrome P450 2C9 = Cytochrome P450 2C9 (Homo sapiens, UniProt P11712)
# Sequence of Cytochrome P450 2C9 (P11712 whole entry): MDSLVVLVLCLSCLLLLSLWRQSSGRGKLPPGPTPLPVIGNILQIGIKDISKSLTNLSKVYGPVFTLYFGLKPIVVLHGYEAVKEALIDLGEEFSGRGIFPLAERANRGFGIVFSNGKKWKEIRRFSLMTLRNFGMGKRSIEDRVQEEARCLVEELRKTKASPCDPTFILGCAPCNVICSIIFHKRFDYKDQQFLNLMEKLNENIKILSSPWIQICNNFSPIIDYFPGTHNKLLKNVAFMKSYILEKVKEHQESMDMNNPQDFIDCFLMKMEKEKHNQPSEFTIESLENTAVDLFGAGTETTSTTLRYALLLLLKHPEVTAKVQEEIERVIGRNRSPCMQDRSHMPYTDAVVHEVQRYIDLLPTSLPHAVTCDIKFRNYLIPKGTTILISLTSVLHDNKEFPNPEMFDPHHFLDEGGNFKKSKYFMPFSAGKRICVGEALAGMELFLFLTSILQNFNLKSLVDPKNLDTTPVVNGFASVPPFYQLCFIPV
# [5] = biological target: FAD-linked sulfhydryl oxidase ALR (Homo sapiens, UniProt P55789); assay: ALR-catalysed DTT oxidation blockers – biochemical, H2O2 detection, luminescence, cherry-pick, dose response (AID 493248)
# Sequence of FAD-linked sulfhydryl oxidase ALR (P55789 whole entry): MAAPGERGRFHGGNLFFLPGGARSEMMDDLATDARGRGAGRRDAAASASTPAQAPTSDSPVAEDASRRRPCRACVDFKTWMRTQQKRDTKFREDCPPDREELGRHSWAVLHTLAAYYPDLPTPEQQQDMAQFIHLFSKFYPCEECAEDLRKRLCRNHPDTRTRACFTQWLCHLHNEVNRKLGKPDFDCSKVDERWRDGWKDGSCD
# Large T antigen = Large T antigen (Simian virus 40, UniProt P03070); type: functional, Betapolyomavirus macacae;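 note: Confirmatory-stage PubChem screen for compounds that inhibit SV40 T antigen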
# Sequence of Large T antigen (P03070 whole entry): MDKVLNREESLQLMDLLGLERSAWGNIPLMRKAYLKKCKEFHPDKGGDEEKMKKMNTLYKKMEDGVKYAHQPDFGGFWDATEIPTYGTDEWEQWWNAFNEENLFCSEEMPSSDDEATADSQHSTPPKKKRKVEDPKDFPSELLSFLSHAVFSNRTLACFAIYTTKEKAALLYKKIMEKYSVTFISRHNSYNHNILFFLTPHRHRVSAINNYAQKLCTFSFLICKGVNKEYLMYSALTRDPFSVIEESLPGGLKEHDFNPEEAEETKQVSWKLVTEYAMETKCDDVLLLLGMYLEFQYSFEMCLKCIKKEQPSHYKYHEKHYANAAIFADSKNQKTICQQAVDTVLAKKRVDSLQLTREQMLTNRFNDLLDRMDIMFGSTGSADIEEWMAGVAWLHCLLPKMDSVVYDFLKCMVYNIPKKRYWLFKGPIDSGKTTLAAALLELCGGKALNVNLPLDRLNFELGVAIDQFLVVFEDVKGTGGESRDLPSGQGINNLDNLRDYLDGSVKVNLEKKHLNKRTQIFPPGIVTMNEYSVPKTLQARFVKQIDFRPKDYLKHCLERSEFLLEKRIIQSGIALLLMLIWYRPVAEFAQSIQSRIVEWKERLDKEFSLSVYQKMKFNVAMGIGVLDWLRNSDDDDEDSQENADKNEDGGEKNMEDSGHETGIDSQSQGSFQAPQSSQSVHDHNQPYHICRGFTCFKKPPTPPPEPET
# Streptokinase A = biological target: T4, Streptokinase A (Streptococcus pyogenes serotype M1, UniProt P10520); assay: viability-normalized secreted streptokinase activity reduction – plasminogen activation absorbance, OD405, dose response (AID 1914); type: functional, Streptococcus pyogenes M1 GAS;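 note: secreted streptokinase activity via plasminogen activation per viability signal from cell pellet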
# T4 sequence (P10520 whole entry): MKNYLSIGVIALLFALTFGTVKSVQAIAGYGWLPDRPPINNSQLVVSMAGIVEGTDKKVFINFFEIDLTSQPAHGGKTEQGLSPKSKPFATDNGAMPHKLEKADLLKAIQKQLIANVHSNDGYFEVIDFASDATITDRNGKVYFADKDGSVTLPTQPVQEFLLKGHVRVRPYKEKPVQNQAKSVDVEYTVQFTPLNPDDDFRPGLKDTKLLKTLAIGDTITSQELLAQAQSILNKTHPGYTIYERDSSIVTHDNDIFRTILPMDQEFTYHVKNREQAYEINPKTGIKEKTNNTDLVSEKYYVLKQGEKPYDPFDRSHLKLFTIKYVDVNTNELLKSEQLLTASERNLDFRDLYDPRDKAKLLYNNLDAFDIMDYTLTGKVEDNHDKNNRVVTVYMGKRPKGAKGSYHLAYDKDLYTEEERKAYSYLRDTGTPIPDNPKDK
# [6] = tested on: Streptococcus sp. 'group A'; assay: Streptococcus pyogenes SK(-)GAS viability under kanamycin – luminescence, BacTiterGlo, confirmation, counter-screen for streptokinase expression inhibitor project, dose response (AID 1900); type: functional, organism-based
# Streptococcus = assay: GAS UMAA2166 growth inhibition – luminescence, BacTiterGlo, counter-screen for streptokinase expression inhibitor project, dose response (AID 1915); type: functional, organism-based;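 note: potency for reduction of bacterial viability or growth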
# Cytochrome P450 3A4 = Cytochrome P450 3A4 (Homo sapiens, UniProt P08684);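 note: CYP3A4 tested as one member of a cytochrome P450 panel screen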
# Sequence of Cytochrome P450 3A4 (P08684 whole entry): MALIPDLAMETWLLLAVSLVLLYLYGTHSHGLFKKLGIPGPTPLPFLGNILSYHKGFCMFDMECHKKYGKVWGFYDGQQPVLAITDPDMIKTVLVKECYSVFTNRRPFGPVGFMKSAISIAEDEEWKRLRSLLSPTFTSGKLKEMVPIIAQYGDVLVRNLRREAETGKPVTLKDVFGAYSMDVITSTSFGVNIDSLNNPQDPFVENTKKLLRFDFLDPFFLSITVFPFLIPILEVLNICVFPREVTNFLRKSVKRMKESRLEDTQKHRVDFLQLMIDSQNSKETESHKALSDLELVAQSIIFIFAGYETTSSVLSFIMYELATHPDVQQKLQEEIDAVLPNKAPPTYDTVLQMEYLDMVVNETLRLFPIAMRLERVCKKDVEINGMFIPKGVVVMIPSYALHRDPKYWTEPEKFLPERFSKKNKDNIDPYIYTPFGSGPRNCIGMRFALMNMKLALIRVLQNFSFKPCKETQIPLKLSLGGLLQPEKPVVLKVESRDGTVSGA
# Cytochrome P450 2C19 = Cytochrome P450 2C19 (Homo sapiens, UniProt P33261); assay: Cytochrome panel assay with activity outcomes. Panel member name: p450-cyp2c19 Compounds with AC50 equal or less than 10 uM are considered active; type: functional; settings: read-out: AC50
# Sequence of Cytochrome P450 2C19 (P33261 whole entry): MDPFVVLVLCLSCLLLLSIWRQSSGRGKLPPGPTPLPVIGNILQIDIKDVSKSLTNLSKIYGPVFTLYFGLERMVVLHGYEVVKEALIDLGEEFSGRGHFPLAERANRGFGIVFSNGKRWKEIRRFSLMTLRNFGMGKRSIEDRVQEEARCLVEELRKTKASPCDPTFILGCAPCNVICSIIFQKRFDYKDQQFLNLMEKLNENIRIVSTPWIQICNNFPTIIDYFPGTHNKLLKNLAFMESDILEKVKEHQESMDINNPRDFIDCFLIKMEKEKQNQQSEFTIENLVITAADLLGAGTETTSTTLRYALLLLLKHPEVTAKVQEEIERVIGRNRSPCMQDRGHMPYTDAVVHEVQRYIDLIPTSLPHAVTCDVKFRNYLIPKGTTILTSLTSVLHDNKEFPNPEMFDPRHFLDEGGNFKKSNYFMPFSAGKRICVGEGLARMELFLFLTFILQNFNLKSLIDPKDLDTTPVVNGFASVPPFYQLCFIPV
# [7] = biological target: Luciferin 4-monooxygenase (Photinus pyralis, UniProt P08659); assay: inhibition of purified Photinus pyralis luciferase – biochemical, luminescence, dose response (AID 1891)
# Sequence of Luciferin 4-monooxygenase (P08659 whole entry): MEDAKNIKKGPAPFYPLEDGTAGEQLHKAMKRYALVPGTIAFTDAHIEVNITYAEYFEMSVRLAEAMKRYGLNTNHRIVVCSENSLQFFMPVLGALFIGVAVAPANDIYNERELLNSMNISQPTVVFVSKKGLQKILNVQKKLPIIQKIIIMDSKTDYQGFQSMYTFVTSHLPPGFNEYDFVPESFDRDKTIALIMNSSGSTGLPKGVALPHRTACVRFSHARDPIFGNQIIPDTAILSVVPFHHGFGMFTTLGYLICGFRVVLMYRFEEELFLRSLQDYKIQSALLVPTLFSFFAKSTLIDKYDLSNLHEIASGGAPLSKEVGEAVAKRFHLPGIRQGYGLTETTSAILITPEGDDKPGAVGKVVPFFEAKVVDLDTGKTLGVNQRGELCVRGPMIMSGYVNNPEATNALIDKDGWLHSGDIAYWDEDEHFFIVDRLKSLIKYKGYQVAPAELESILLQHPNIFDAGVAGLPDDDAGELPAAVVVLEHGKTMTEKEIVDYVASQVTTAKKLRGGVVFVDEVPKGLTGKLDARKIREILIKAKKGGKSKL
# [8] = Luminescence Cell-Based Dose Confirmation HTS to Identify Inhibitors of Platelet Dense Granule Release. [Related pubchem assays: 1663 (Primary HTS), 1678 (Summary of Project)]; type: functional
# [9] = NIH3T3 cell viability loss – ATP luminescence, mouse fibroblasts, counter-screen, dose response (AID 2010); type: functional, cell-based;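 note: cells exposed to compound for about 90 hours before reading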
# [10] = reduction of Shn3 3'UTR-driven luciferase in osteoblasts – cell-based, Clone20 osteoblasts, firefly luciferase, cherry-picked, dose response (AID 624132); type: functional;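 note: firefly luciferase luminescence from reporter carrying the Shn3 3'UTR in osteoblasts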
# [11] = loss of viability in HepG2 cells – cell-based, CellTiter-Glo, cherry-picked, cytotoxicity control for Shn3 inhibitor project, dose response (AID 624134); type: functional
# [12] = Trypanosoma cruzi growth suppression in host cells – NIH3T3 host cells, beta-gal luminescence, confirmation (AID 2044); type: functional, cell-based;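 note: intracellular parasites grown in NIH/3T3 mouse fibroblasts as host cells; luminescent beta-galactosidase reporter signal from transgenic T. cruzi replicating inside host cells; inhibitors lower the luminescence signal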
# [13] = non-specific 3'UTR reporter inhibition in Clone20-Shn3RL – cell-based, Renilla luciferase, cherry-picked, counter-screen for Shn3 inhibitor project, dose response (AID 624133); type: functional
# INS1 = assay: INS-1E survival protection against cytokine death – cell-based, luminescence, retest, dose response (AID 449756); type: functional; settings: Rattus norvegicus;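 note: cell death triggered by IL-1 beta plus TNF-alpha plus IFN-gamma mixture; protective hits raise ATP signal compared with cytokine alone wells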
smiles,measurement,setting,value
O=C1c2ccccc2-c2c1nc1c([n+]2[O-])CCCC1,AC50,[1],21 µM (active)
same,EC50,H4,6.95 µM (active)
same,EC50,[2],4.63 µM (active)
same,EC50,[3],0.262 µM (active)
same,EC50,Protein RecA,20.1 µM (active)
O=C(OCC(=O)N1CCN(c2ccccc2)CC1)c1ccc2ccccc2n1,IC50,cells,16.3 µM (active)
O=C(O)c1ccc(-c2ccc(-c3ccccc3)cc2)s1,IC50,[4],> 80 µM (inactive)
COc1ccc(OCCCn2cccc2/C=C2/C(=N)N3OC(C)=CC3=NC2=O)cc1,IC50,Leucine aminopeptidase,10.9 µM (active)
Nc1c2c(nc3ccccc13)CCC[C@H]2O,AC50,Cytochrome P450 2C9,inconclusive
CCN(CC)c1ccc(NC(=O)CCNS(=O)(=O)c2ccc3c(c2)CCC(=O)N3)c(C)c1,AC50,[5],1.09 µM (active)
same,IC50,Large T antigen,42.6 µM (active)
O=C(OCC#CCSc1nc2ccccc2o1)c1ccco1,IC50,cells,10 µM (active)
FC(F)(F)C1CCCN(c2nsc3ccccc23)C1 (stereo not drawn),IC50,Large T antigen,13 µM (active)
Oc1cc(-c2ccccc2)nc2nc(SCc3ccccc3)nn12,IC50,Leucine aminopeptidase,5.04 µM (active)
Cc1cc(C)cc(NC(=O)C2CCN(c3nc(C)cc(C)n3)CC2)c1,IC50,Leucine aminopeptidase,105 µM (active)
Cc1ccc(NC(=O)CCSc2nnc(Cc3ccccc3)o2)cc1,IC50,cells,18.2 µM (active)
N#CC1=C2SCN(Cc3ccco3)CN2C(=O)CC1c1c(F)cccc1Cl (stereo not drawn),IC50,Large T antigen,84.4 µM (active)
S=C(NCCSCc1ccc(Cl)cc1Cl)Nc1ccccc1,EC50,Streptokinase A,> 150 µM (not active)
same,AC50,Cytochrome P450 2C9,inconclusive
same,EC50,[6],11.5 µM (active)
same,EC50,Streptococcus,17 µM (active)
CNc1nc(-c2c(C)noc2C)nc2ccccc12,AC50,Cytochrome P450 2C9,inconclusive
same,AC50,Cytochrome P450 3A4,12.6 µM (inconclusive)
same,AC50,Cytochrome P450 2C19,3.98 µM (inconclusive)
CCOC(=O)CNc1c(-c2ccc(O)cc2)nc2ccccn12,IC50,Large T antigen,14.7 µM (active)
Nc1nc2ccc(O)cc2s1,IC50,Large T antigen,3.5 µM (active)
C=C(C)C(=O)N1CC2(CC(c3cccc(NC(=O)c4ccccc4)c3)=NO2)C[C@@H]1C(N)=O (stereo partly drawn),AC50,Cytochrome P450 2C9,inconclusive
COc1ccc(NC(=O)CSc2c3c(nc4cc(Cl)ccc24)CCCC3)cc1OC,EC50,[7],> 112 µM (not active)
same,AC50,[1],8.17 µM (active)
same,EC50,[8],> 112 µM (not active)
same,EC50,Protein RecA,3.1 µM (active)
CC(Oc1ccc(Cl)cc1Cl)c1nc(-c2ccc(NC(=O)c3ccncc3)cc2)no1 (stereo not drawn),EC50,[9],> 60 µM (not active)
same,AC50,[10],3.93 µM (active)
same,AC50,[11],6.83 µM (active)
same,EC50,[12],1.46 µM (active)
same,IC50,[4],> 80 µM (inactive)
same,AC50,[13],21.7 µM (active)
O=C(Oc1cccnc1)c1ccc(Cl)c(Cl)c1,IC50,cells,1.31 µM (active)
CCOC(=O)Cn1c(-c2ccccc2)ccc(C#N)c1=O,IC50,cells,7.5 µM (active)
CC(C)(C)OC(=O)[C@H]1[C@H](c2ccc([N+](=O)[O-])cc2)C2(C(=O)c3ccccc3C2=O)C2c3ccccc3C=NN21 (stereo partly drawn),IC50,Leucine aminopeptidase,2.23 µM (active)
COc1cccc2cc(C(=O)CC3(O)C(=O)N(Cc4ccccc4)c4ccccc43)c(=O)oc12 (stereo not drawn),AC50,Cytochrome P450 2C9,inconclusive
Cc1ccc(-n2c(=O)c3c4c(sc3n3c(S)nnc23)CCC4)cc1,IC50,Large T antigen,30.9 µM (active)
O=S(=O)(c1cc(F)ccc1F)N1CCN(c2ncnc3ccccc23)CC1,AC50,[10],1.85 µM (active)
same,AC50,[11],33.6 µM (active)
same,IC50,[4],65.1 µM (inactive)
same,AC50,[13],4.86 µM (active)
same,AC50,INS1,2.26 µM (active)
Oc1oc(-c2ccco2)nc1/C=N/c1cccc(Cl)c1,IC50,cells,> 50 µM (active)
